According to PubChem BioAssay (NCI):
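Results reflect a 48-hour exposure of cells in 96-well plates to compound at five concentrations. Abbreviation: GI50, concentration required for 50% inhibition of growth. TGI denotes the concentration required for complete inhibition of growth.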

How the values were obtained:
Assay in all cases: NCI-60 cell line screen, 48 h
HOP-92 NSCLC = tested on: HOP-92 NSCLC
HCC-2998 colon = tested on: HCC-2998 colon
MOLT-4 leukemia = tested on: MOLT-4 leukemia
DMS 114 small cell lung = tested on: DMS 114 small cell lung
NCI-H460 lung = tested on: NCI-H460 lung
SNB-78 CNS = tested on: SNB-78 CNS
NCI-H23 lung = tested on: NCI-H23 lung
786-0 renal = tested on: 786-0 renal
OVCAR-5 ovarian = tested on: OVCAR-5 ovarian
PC-3 prostate = tested on: PC-3 prostate

SMILES | TGI (HOP-92 NSCLC) [µM] | TGI (HCC-2998 colon) [µM] | TGI (MOLT-4 leukemia) [µM] | TGI (DMS 114 small cell lung) [µM] | TGI (NCI-H460 lung) [µM] | TGI (SNB-78 CNS) [µM] | TGI (NCI-H23 lung) [µM] | TGI (786-0 renal) [µM] | TGI (OVCAR-5 ovarian) [µM] | TGI (PC-3 prostate) [µM] | GI50 (HCC-2998 colon) [µM] | GI50 (MOLT-4 leukemia) [µM] | GI50 (DMS 114 small cell lung) [µM] | GI50 (NCI-H460 lung) [µM] | GI50 (SNB-78 CNS) [µM] | GI50 (NCI-H23 lung) [µM] | GI50 (OVCAR-5 ovarian) [µM] | GI50 (HOP-92 NSCLC) [µM]
C/C(=C\C(=O)Nc1ccc2n[nH]nc2c1)Nc1ccc2n[nH]nc2c1 | > 100 | > 100 | > 100 | > 100 | > 100 | > 100 | > 100 | > 100 | > 100 |  |  |  |  |  |  |  |  | 
Cc1c2cc[n+](Cc3ccc(I)cc3)cc2c(C)c2c1[nH]c1ccccc12 | 3.3 | 5.25 | 1.65 | 2.63 | 1.93 | > 25 | 9.13 |  | 11.3 |  |  |  |  |  |  |  |  | 
Nc1cccc(-c2cc(=O)c3cc4c(cc3[nH]2)OCO4)c1 | > 100 | 26.5 | > 100 |  | > 100 | > 100 | 22.6 | > 100 | > 100 | 13 |  |  |  |  |  |  |  | 
Oc1c(Br)cc2c(c1Br)-c1c(c(O)c3c4c1=NCCC=4C=N3)NCC2 | 35.4 |  | 9.79 | 9.76 | 27.9 | 13.4 | 30.3 |  | 40.2 |  |  |  |  |  |  |  |  | 
CNC(=S)N/N=C/C(C)=N/NC(=S)NC |  | > 100 | > 100 | > 100 | > 100 | > 100 | > 100 | > 100 | > 100 |  |  |  |  |  |  |  |  | 
N#C[S-].[La+3].c1ccc(-c2ccccn2)nc1.c1ccc(-c2ccccn2)nc1.c1ccc(-c2ccccn2)nc1 |  | > 100 | > 100 | 97.2 | 88.2 | > 100 | > 100 |  | 55.1 |  | 17.4 | 10.5 | 26.1 | 22.5 | 59.4 | 29.1 | 15 | 
[CH3][Sn]([CH3])([CH3])[S]C(=S)N1CCOCC1 | 6.48 | 15.7 | 4.05 | 3.72 | 4.38 | > 100 | 4.94 |  | > 28.2 |  | 3.41 | 0.135 | 0.772 | 1.05 | 9.94 | 0.345 | 2.5 | 1.84
COC(=O)CN1CCN(c2cccc3c2CCCC3)CC1 | 15.4 | 85.3 | > 100 |  | > 100 |  | 48.7 | > 100 | > 100 | > 100 |  |  |  |  |  |  |  | 
COc1cc2c(c(OC)c1OC)C(=O)c1c(O)cc(C)c(OC)c1C2=O | > 100 | > 100 | > 100 |  | > 100 |  | > 100 | > 100 | > 100 | > 100 |  |  |  |  |  |  |  | 
Cc1ccc(C)c2c1C1CCCCC3(OCCCO3)C21O (centres undefined) |  | > 100 | > 100 | > 100 | > 100 | > 100 | > 100 | > 100 | > 100 |  |  |  |  |  |  |  |  | 
Nc1nc(Sc2ccc([N+](=O)[O-])c3nonc23)c2[nH]cnc2n1 | 10.5 | 7.93 | 1.8 |  | 10.7 |  | 10.9 | 3.18 | 17.3 | 18 |  |  |  |  |  |  |  | 
COc1cc(/C=C(\C)[N+](=O)[O-])cc(OC)c1 | 28.2 | 55.5 | 6.16 |  | 39.5 |  | 37.1 | 8.95 | 36.1 | 34.8 |  |  |  |  |  |  |  | 
Cc1sc(/N=C/C2=C(O)CC(C)(C)CC2=O)nc1-c1ccccc1 | > 100 | > 100 | > 100 |  | > 100 |  | > 100 | > 100 | > 100 | > 100 |  |  |  |  |  |  |  | 
Clc1ccc(-c2cn3c(nc4ccccc43)c(-c3ccccc3)n2)cc1 | 40.9 | > 100 | > 100 |  | > 57.4 |  | 64.2 | 15.2 | > 55.9 | 47 |  |  |  |  |  |  |  | 
O=C(/C=C/c1ccc(-c2ccccc2)cc1)NCc1ccc(C(=O)NCCc2ccccc2)cc1 | > 100 | > 100 | > 100 |  | > 100 |  | > 100 | > 100 | > 100 | > 100 |  |  |  |  |  |  |  | 
O=C1Cc2cc3ccccc3nc2-c2ccccc2N1 | > 100 | 90.4 | > 100 |  | > 100 |  | > 100 | > 100 | > 100 | > 100 |  |  |  |  |  |  |  | 
NC(CCC(=O)c1ccccn1)C(=O)O (centres undefined) | > 100 | > 100 | > 100 |  | > 100 |  | > 100 | > 100 | > 100 | > 100 |  |  |  |  |  |  |  | 
C=C1OC2OC(C)C(NC(=O)OCC(Cl)(Cl)Cl)C(OC(C)=O)C2O1 (centres undefined) | > 100 | > 100 | > 100 |  | > 100 |  | > 100 | > 100 | > 100 | > 100 |  |  |  |  |  |  |  | 
Cc1nc2ccc(NCCN(C)C)c3c(=O)c4ccccc4n1c23 | 14.2 | 16.7 | 22.2 | 21.5 | 10.8 | 23.9 | 9.94 | 15.7 | 21 | 8.8 |  |  |  |  |  |  |  | 
Cc1cccc2c(=O)c3c(O)cc(O)cc3n(C)c12 | > 100 | > 100 | > 100 |  | > 100 |  | > 100 | > 100 | > 100 | > 100 |  |  |  |  |  |  |  | 
CC(=O)O[C@H]1[C@@H](N2CCOCC2)C[C@H]2[C@@H]3CC=C4C[C@@H](N5CCCC5)CC[C@]4(C)[C@H]3CC[C@@]21C | > 100 | > 100 | > 100 |  | > 100 |  | > 100 | > 100 | > 100 | > 100 |  |  |  |  |  |  |  | 
CC(=O)c1csc2c1C(=O)c1ccccc1C2=O | 89.1 | 3.2 | > 66.7 |  | 5 |  | 3.59 | > 22.3 | 5.45 | > 100 |  |  |  |  |  |  |  | 
O=c1cc(NNc2cccc3ccccc23)[nH]c(=O)[nH]1 | 31.7 | 35.6 | 56.8 |  | 43.5 |  | 28.9 | 18.6 | 31.1 | 27 |  |  |  |  |  |  |  | 
CCCOC(=O)c1cc(O)c(O)c(O)c1 | > 100 | > 100 | > 100 |  | > 100 |  | > 100 | > 100 | > 100 | > 100 |  |  |  |  |  |  |  | 
CC(=O)N[C@@H](Cc1ccc(O)cn1)C(=O)NCc1ccc(Cl)cc1 | > 100 | > 100 | > 100 |  | > 100 |  | > 100 | > 100 | > 100 | > 100 |  |  |  |  |  |  |  | 
OC12CCC3(OC4CCCCO4)c4ccccc4C3C1c1ccccc12 (centres undefined) |  |  | > 100 | > 100 | > 100 | > 100 | > 100 | > 100 |  |  |  |  |  |  |  |  |  | 
O=c1c(-c2nc3ccccc3c3ccccc3c2=O)nc2ccccc2c2ccccc12 | > 100 | 68 | > 100 |  | > 100 |  | > 100 | > 100 | > 100 | 89.6 |  |  |  |  |  |  |  | 
Cc1nn2c(=O)c([N+](=O)[O-])c(/C=C/c3ccc(F)cc3)nc2s1 | 26.3 | 16.4 | 28.6 |  | 22.9 |  | 23.5 | 20.9 | 18 | 22 |  |  |  |  |  |  |  | 
